Assays:
Aphidius rhopalosiphi = assay: LR50; higher = less toxic; details: not reported; mortality
Oncorhynchus mykiss = details: chronic/long-term; duration: 28 days; growth
Apis mellifera = details: acute; duration: 48 hours; oral; unspecified; mortality
Bibionidae = details: chronic/long-term; duration: 28 days
Lepomis macrochirus = details: acute; duration: 96 hours; mortality
Colinus virginianus = details: acute, oral, mortality
Mus musculus = details: chronic; duration: 18 months; histopathology: nonneoplastic
Daphnia magna = details: chronic/long-term; duration: 21 days
Tagia sp. = details: acute; duration: 14 days; mortality
Anas platyrhynchos = details: oral, mortality

## O=C(NC(=O)c1c(F)cccc1F)Nc1cc(Cl)c(F)c(Cl)c1F [Teflubenzuron]
Aphidius rhopalosiphi
  LR50: > 180 g/ha
Oncorhynchus mykiss
  NOEC: 0.0186 mg/L
Apis mellifera
  LD50: > 72 µg/piece
Bibionidae
  NOEC: 0.05 mg/kg
Lepomis macrochirus
  LC50: > 6.5 ng/mL
Colinus virginianus; diet
  LD50: > 1010 mg/kg-day
Colinus virginianus
  LD50: > 2250 mg/kg-day
Mus musculus
  LOAEL: 2.1 mg/kg-day
Daphnia magna
  NOEC: 6.2e-05 mg/L
Tagia sp.
  LC50: > 1000 mg/kg
Anas platyrhynchos; acute, unspecified
  LD50: > 2000 mg/kg-day
Anas platyrhynchos; short-term, feed
  LD50: > 1210 mg/kg-day
Rattus norvegicus; acute, oral, mortality
  LD50: > 5000 mg/kg-day
Rattus norvegicus; chronic
  NOAEL: 40 mg/kg-day
Rattus norvegicus; subchronic, duration: 90 days, oral, clinical chemistry
  NOAEL: 8 mg/kg-day
